Source: publication PMC10088252
Several values for one entry are separate records, joined by “and”; a condition that tells them apart may be missing. Equal values may be shown once. Read-outs that look alike come from different tables or passages of the source.

Experiments:
[1] = Chinese patients with advanced NSCLC, even at 800 mg QD; cited from earlier work
[2] = test system: locally advanced or metastatic NSCLC harboring c-MET overexpression or MET exon 14 skipping mutation; assay type: in vivo, human
Experimental: Patients enrolled in this study were divided into two parts. […] Patients with pre-existing c-MET overexpression at hospital diagnosis were also included in Part A. In Part B, patients in the 400 mg bis in die (BID) dose cohort, blood and tissue samples were collected to perform NGS to determine the MET exon 14 skipping mutation. Patients harboring pre-existing MET exon 14 skipping mutation at hospital diagnosis were also enrolled into Part B. […] Statistical analyses were performed using SAS version 9.4 (SAS Institute, Cary, NC, USA). Age was expressed as median (range), and categorical variables were expressed as frequency (percentage). The 95% CIs of ORR and DCR were calculated using Clopper-Pearson method. […] No imputation method was performed for missing data.

[3] = Plasma PK from sparse data, population PK analysis without PK modeling; assay type: in vivo, human; details: 28 days
Experimental: A total of 21 patients in Part A were included in PKAS. […] The mean T1/2 of M1 ranged from 19.8 h to 21.8 h. For M2-2, its mean T1/2 was not able to estimate in the 450 mg QD and 600 mg QD cohorts, and 21.3 h in the 300 mg QD cohort. The MP ratio calculated based on AUCtau ranged from 6.0 to 9.1 for M1, and ranged from 4.1 to 5.7 for M2-2.

In the case of O=C(Nc1ccc(Oc2ccnc3c2CCN3)c(F)c1)c1c[nH]cc(-c2ccc(F)cc2)c1=O, the “dose-limiting toxicity (DLT)” value [1] is listed as “No dose-limiting toxicity (DLT) occurred”, the “BOR CR” value ([2]; 300 mg QD (n=12)) is listed as 0 n (%) and the “BOR NE (patients not evaluable)” value ([2]; 300 mg QD (n=12)) is listed as 0 n (%). For the same molecule, the “BOR PD” value ([2]; 300 mg QD (n=12)) was 7 (58.3) n (%), the “BOR PR” value ([2]; 300 mg QD (n=12)) was 0 n (%) and the “BOR SD” value ([2]; 300 mg QD (n=12)) was 5 (41.7) n (%). The “DCR (95% CI)” value ([2]; 300 mg QD (n=12)) was 41.7% and 41.7 (15.2, 72.3) %, the “ORR (95% CI)” value ([2]; 300 mg QD (n=12)) was 0 (0, 26.5) % and the “PFS, median (95% CI)” value ([2]; 300 mg QD (n=12)) was 1.9 months and 1.9 (1.9, 5.6) months. The “BOR CR” value ([2]; 400 mg BID (n=4)) was 0 n (%), the “BOR PD” value ([2]; 400 mg BID (n=4)) was 0 n (%) and the “BOR PR” value ([2]; 400 mg BID (n=4)) was 0 n (%). For the same molecule, the “BOR CR” value ([2]; 450 mg QD (n=12)) was 0 n (%), the “BOR PD” value ([2]; 450 mg QD (n=12)) was 6 (50.0) n (%) and the “BOR PR” value ([2]; 450 mg QD (n=12)) was 0 n (%). For the same molecule, the “BOR SD” value ([2]; 450 mg QD (n=12)) was 4 (33.3) n (%), the “DCR (95% CI)” value ([2]; 450 mg QD (n=12)) was 33.3% and 33.3 (9.9, 65.1) % and the “ORR (95% CI)” value ([2]; 450 mg QD (n=12)) was 0 (0, 26.5) %. The “OS, median (95% CI)” value ([2]; 450 mg QD (n=12)) was 9.3 months and 9.3 (2.6, NE) months, the “PFS, median (95% CI)” value ([2]; 450 mg QD (n=12)) was 1.9 months and 1.9 (1.1, 3.8) months and the “BOR CR” value ([2]; 600 mg QD (n=10)) was 0 n (%). For the same molecule, the “BOR PD” value ([2]; 600 mg QD (n=10)) was 2 (20.0) n (%), the “BOR SD” value ([2]; 600 mg QD (n=10)) was 3 (30.0) n (%) and the “DCR (95% CI)” value ([2]; 600 mg QD (n=10)) was 40.0% and 40.0 (12.2, 73.8) %. For the same molecule, the “ORR (95% CI)” value ([2]; 600 mg QD (n=10)) was 10.0 (0.3, 44.5) %, the “PFS, median (95% CI)” value ([2]; 600 mg QD (n=10)) was 1.8 months and 1.8 (1.2, 3.9) months and the ORR ([2]; Part A (n=34), c-MET overexpression) was 2.9%. For the same molecule, the “DCR (95% CI)” value ([2]; Part B, 400 mg BID (n=4)) was 75.0% and 75.0 (19.4, 99.4) %, the “ORR (95% CI)” value ([2]; Part B, 400 mg BID (n=4)) was 0% and 0 (0, 60.2) % and the “PFS, median (95% CI)” value ([2]; Part B, 400 mg BID (n=4)) was 3.4 months and 3.4 (3.2, 3.7) months. The “BOR CR” value ([2]; Total (n=38)) was 0 n (%), the “BOR PD” value ([2]; Total (n=38)) was 15 (39.5) n (%) and the “BOR SD” value ([2]; Total (n=38)) was 15 (39.5%) n (%) and 15 (39.5) n (%). The “DCR (95% CI)” value ([2]; Total (n=38)) was 42.1% and 42.1 (26.3, 59.2) %, the “ORR (95% CI)” value ([2]; Total (n=38)) was 2.6% and 2.6 (0.1, 13.8) % and the “OS, median (95% CI)” value ([2]; Total (n=38)) was 10.3 months and 10.3 (7.3, NE) months. The “PFS, median (95% CI)” value ([2]; Total (n=38)) was 1.9 months and 1.9 (1.9, 3.7) months, the “AUCtau, mean (SD)” value ([3]; 300 mg QD (n=4)) was 7420.0 (3120.0) h×ng/mL and the “CLss/F, mean (SD)” value ([3]; 300 mg QD (n=4)) was 46.2 (18.7) L/h. The “Cmax,ss, mean (SD)” value ([3]; 300 mg QD (n=4)) was 601.0 (189.0) ng/mL, the “Cmin,ss, mean (SD)” value ([3]; 300 mg QD (n=4)) was 89.1 (56.3) ng/mL and the “Ctrough, mean (SD)” value ([3]; 300 mg QD (n=4)) was 94.1 (79.0) ng/mL. For the same molecule, the “T1/2, mean (SD)” value ([3]; 300 mg QD (n=4)) was 9.1 (1.7) h, the “Tmax,ss, mean (SD)” value ([3]; 300 mg QD (n=4)) was 4.0 (2.0) h and the “Vz,ss/F, mean (SD)” value ([3]; 300 mg QD (n=4)) was 685.0 (196.0) L. For the same molecule, the “AUCtau, mean (SD)” value ([3]; 450 mg QD (n=5)) was 6350.0 (2710.0) h×ng/mL, the “CLss/F, mean (SD)” value ([3]; 450 mg QD (n=5)) was 77.9 (33.2) L/h and the “Cmax,ss, mean (SD)” value ([3]; 450 mg QD (n=5)) was 470.0 (83.3) ng/mL. For the same molecule, the “Cmin,ss, mean (SD)” value ([3]; 450 mg QD (n=5)) was 151.0 (77.5) ng/mL, the “Ctrough, mean (SD)” value ([3]; 450 mg QD (n=5)) was 167.0 (100.5) ng/mL and the “T1/2, mean (SD)” value ([3]; 450 mg QD (n=5)) was 10.3 (NE) h. The “Tmax,ss, mean (SD)” value ([3]; 450 mg QD (n=5)) was 5.1 (2.0) h, the “Vz,ss/F, mean (SD)” value ([3]; 450 mg QD (n=5)) was 1500.0 (NE) L and the “AUCtau, mean (SD)” value ([3]; 600 mg QD (n=2)) was 6980.0 (NE) h×ng/mL. For the same molecule, the “CLss/F, mean (SD)” value ([3]; 600 mg QD (n=2)) was 86.0 (NE) L/h, the “Cmax,ss, mean (SD)” value ([3]; 600 mg QD (n=2)) was 758.0 (NE) ng/mL and the “Cmin,ss, mean (SD)” value ([3]; 600 mg QD (n=2)) was 80.3 (NE) ng/mL. For the same molecule, the “Ctrough, mean (SD)” value ([3]; 600 mg QD (n=2)) was 201.1 (166.4) ng/mL, the “T1/2, mean (SD)” value ([3]; 600 mg QD (n=2)) was 9.6 (NE) h and the “Tmax,ss, mean (SD)” value ([3]; 600 mg QD (n=2)) was 3.0 (NE) h. The “Vz,ss/F, mean (SD)” value ([3]; 600 mg QD (n=2)) was 1180.0 (NE) L.
